Measured values taken from patent US12441706B2, “Protein degradation agent compound preparation method and application” (SHANGHAI JEMINCARE PHARMACEUTICALS CO., LTD., priority 2019, dated 2025).
Like-named read-outs stand apart in the source and are kept apart here.

Legend:
LNcap FGC cells = assay: Inhibition of proliferation of LNcap FGC cells (Cell Titer Glo, 6 days); assay type: cell-based; conditions: Homo sapiens, 144 h
Description: Tumor cell line LNcap FGC (ATCC catalog number CRL-1740) was cultured in RPMI 1640 (Gibco catalog number 11875-093) and DMEM (Gibco catalog number. 11965-092) medium containing 10% FBS (Gibco catalog number 10099-141C), respectively.
(§1) LNcap FGC cells were inoculated in a 384-well plate (Perkin Elmer catalog number 6007460) at a cell density of 400 cells/well in a volume of 20 μL/well and incubated overnight in a carbon dioxide incubator (Thermo). The prepared compound solutions of different concentrations were added in a volume of 5 μL/well. The corresponding vehicle control was set at the same time. After being cultured in the incubator for 6 days, the cell plate and the contents were equilibrated to room temperature, and 25 μL of Cell Titer Glor (Promega catalog number G7573) was added to each well, shook and mixed well, incubated in dark for 10-30 minutes, and the signal values were detected with Envision microplate reader (PerkinElmer).
(§2) The percentage inhibition rate of compound-treated wells was calculated from the vehicle control wells on the plate, and the percentage inhibition rate data corresponding to different concentrations were fitted by GraphPad prism, and the IC50 values were calculated by 4-parameter nonlinear logic formula.

androgen receptor = target: T1, androgen receptor (Homo sapiens, UniProt P10275, T878A); assay: In-Cell-Western determination of androgen receptor degradation in LnCaP cells; assay type: cell-based; conditions: for DC50: concentration for half of the maximal degradation of AR in LnCaP cells
T1 construct: endogenous in cells; host or cells: LNCaP cells
T1 sequence (P10275 1-920 T878A): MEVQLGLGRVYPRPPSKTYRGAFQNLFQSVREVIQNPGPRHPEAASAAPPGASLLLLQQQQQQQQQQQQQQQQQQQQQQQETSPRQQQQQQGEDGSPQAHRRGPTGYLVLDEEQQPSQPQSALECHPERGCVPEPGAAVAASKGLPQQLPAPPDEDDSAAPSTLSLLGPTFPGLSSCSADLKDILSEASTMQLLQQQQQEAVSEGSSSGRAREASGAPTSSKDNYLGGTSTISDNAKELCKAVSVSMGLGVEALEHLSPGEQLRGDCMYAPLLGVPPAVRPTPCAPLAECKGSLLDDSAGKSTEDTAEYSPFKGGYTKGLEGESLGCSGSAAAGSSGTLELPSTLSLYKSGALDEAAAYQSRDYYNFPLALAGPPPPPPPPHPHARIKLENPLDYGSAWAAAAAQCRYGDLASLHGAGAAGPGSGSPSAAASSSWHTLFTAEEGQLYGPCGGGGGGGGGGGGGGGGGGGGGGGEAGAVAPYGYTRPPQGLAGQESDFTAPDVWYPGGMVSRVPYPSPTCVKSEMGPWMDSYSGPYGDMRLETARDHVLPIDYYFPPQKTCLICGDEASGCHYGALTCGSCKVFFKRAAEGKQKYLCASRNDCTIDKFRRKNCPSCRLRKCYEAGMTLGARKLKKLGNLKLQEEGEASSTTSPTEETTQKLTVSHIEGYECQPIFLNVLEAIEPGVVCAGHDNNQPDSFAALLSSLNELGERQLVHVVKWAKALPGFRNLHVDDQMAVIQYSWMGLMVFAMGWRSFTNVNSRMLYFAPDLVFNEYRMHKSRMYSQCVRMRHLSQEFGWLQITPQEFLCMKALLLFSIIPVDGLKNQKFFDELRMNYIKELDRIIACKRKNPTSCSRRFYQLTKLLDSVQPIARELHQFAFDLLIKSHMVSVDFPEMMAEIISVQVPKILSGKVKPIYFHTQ
Description: The determination evaluated the properties of the compounds in Lncap cells. Intracellular androgen receptor was determined by In-Cell-Western according to the determination steps described below.
In poly-D-Lysin pretreated 96-well cell culture plate (Corning 3599), LNcap cells were divided into 100 μL/well volume, and inoculated with 30,000 cells/well in LNcap cell assay medium [DMEM containing phenol red (Gibco catalog number: 11995065); fetal bovine serum FBS (Gibco catalog number: 10099141C)]. Cells were cultured for at least two days.
1. First treated cells with compound. Compounds were gradient diluted with DMSO and cell culture medium, so that DMSO contained in cell culture plates was diluted to 0.5% —polypropylene plates were used according to the following protocol: (1)(i) 200× stock plate in DMSO was prepared; (ii) 10 mM stock solution was diluted 1:4 with DMSO (10 μL stock solution+40 μL DMSO)=2000 μM, then entered into row 2; (iii) 1:4 (10 μL protac+40 μL DMSO) gradient dilution was performed from row 2 to row 9, and row 1 was reserved for […] reference compound and row 10 for DMSO. (iv) A total of 8 concentrations (final concentrations on the 200× plate were 2000 μM, 400 μM and 80 μM, etc.). (2) (i) 3× stock solution was prepared in the medium. (ii) 3 μL of 200× stock solution was transferred to 197 µL of culture medium (using 12-channel pipette, from line 1 to line 10), i.e. 3× stock solution plate. (iii) The stock solution plate was mixed evenly. (3) (i) The culture medium of […] cells was replaced with fresh culture medium, 100 μL volume culture medium. (ii) The well-mixed 3× stock solution was transferred to the cell culture plate (using a 12-channel pipette, and 50 μL of stock solution was transferred from line 1 to line 10). (iii) Cells were cultured for 24 hours.
2. The expression level of intracellular androgen receptor after compound treatment was […] and determined according to the following method.
(1)(i) Equal volume of 8% paraformaldehyde was added to the cell culture plate for cell fixation. The fixing solution in the cell plate was discarded and washed three times with PBS. (ii) Triton solution (1:1000 dilution of the stock solution) was prepared. The solution in the cell plate was discarded, and 200 μL of Triton diluent was added into each well. (iii) 2×blocking solution (1:4 dilution of 10×blocking stock solution) was prepared. The solution in the cell plate was discarded, and 100 μL of 2×blocking solution was added into each well. (iv) Primary antibody solution (Androgen receptor Rabbbit mAb, Cell Signaling Technology catalog number: 5153; 1:1000 dilution) was prepared. The solution in the cell plate was discarded, 100 μL volume of primary antibody diluent was added to each well, and incubated at 4° C. overnight. (v) The primary antibody solution was discarded and the cell plate was washed with 1×Wash buffer. (vi) Secondary antibody solution (GOAT Antirabbit IgG (H+L), HRP, Thermo catalog number: 31460; 1:5000 dilution) was prepared, and 100 μL volume of secondary antibody dilution was added to each well for incubation. (vii) The secondary antibody solution in the cell plate was discarded and the cell plate was washed with 1×Wash buffer. (viii) TMB chromogenic solution (BD catalog number: 550534) was prepared, and 100 μL chromogenic solution was added into each well. (ix) 50 μL volume of stop solution (BD catalog number: 550534) was added to each well. (x) The absorption values at OD 450 nm and 570 nm were read though EnVision. (2) (i) Normalized analysis was performed on the number of cells in each well. The solution in the cell plate was discarded, and washed with wash buffer for three times. (ii) Janus dilution (1:3 dilution) was prepared. (iii) 50 μL volume diluent was added to each well for incubation. (iv) The solution in the plate was discarded and washed with deionized water. […]

VCap cells = assay: Inhibition of proliferation of VCap cells (Cell Titer Glo, 6 days); assay type: cell-based; conditions: Homo sapiens, 144 h
Description: Tumor cell line VCap FGC (ATCC catalog number CRL-2876) was cultured in DMEM (Gibco catalog number 11965-092) medium containing 10% FBS (Gibco catalog number 10099-141C), respectively. During the determination, Vcap cells were replaced with DMEM medium containing 5% FBS and 0.1 nM R1881 (Sigma catalog number R0908).
as §1, with “Vcap” for “LNcap”, “1200” for “400”, “shake” for “shook”, “mix” for “mixed”, “though” for “with”
as §2, with “from” for “from the”

[1] = In vivo pharmacokinetics in mice, intravenous injection and oral administration; design: species or system mouse; conditions: male CD1 mice
Description: In this experimental example, in vivo pharmacokinetics in mice were evaluated by intravenous injection and oral administration.
Experimental methods and conditions: Male CD1 mice, aged 6-8 weeks, all animals were free access to food and water, and were given a single dose of the compound to be tested at 1 mg/Kg by intravenous injection (solvent 5% DMSO/15% Solutol/80% Saline), at 5 min, 15 min, 30 min, 1 hr, 2 hr, 4 hr, 8 hr, 24 hr, 48 h after drug administration, or oral gavage administration of 10 mg/kg (solvent 5% DMSO/10% Solutol/85% Saline), at 15 min, 30 min, 1 hr, 2 hr, 4 hr, 6 h, 8 hr, 24 hr, 48 h after administration, blood was collected from the orbit, no less than 50 μL for each sample, heparin sodium was used for anticoagulation, and then placed on ice after collection, and centrifuged within 1 hour to separate the plasma for testing. The plasma concentration of the drug was detected by liquid tandem mass spectrometry (LC/MS/MS), and the pharmacokinetic parameters were calculated by Phoenix WinNonlin software.

[2] = LnCaP cell proliferation, 6 days, read-out: IC50
[3] = maximum degree of inhibition of LnCaP cell proliferation, 6 days, read-out: Emax
[4] = mouse, intravenous administration 1 mg/kg, plasma
[5] = mouse, oral administration 10 mg/kg, plasma

COc1cc(N2C(=O)C(C)(C)c3cc(-c4ccc(N5CC(CN6CCN(c7ccc8c(c7)C(=O)N(C7CCC(=O)NC7=O)C8=O)CC6)C5)cc4)ccc32)ccc1C#N (centres unmarked) [Compound 2]
IC50 (LNcap FGC cells; [2]): 89.1 nM | Emax (LNcap FGC cells; [3]): 98%

CC1(C)C(=O)N(c2ccc(C#N)c(Cl)c2)c2ccc(-c3ccc(N4CC(CN5CCN(c6ccc7c(c6)CN(C6CCC(=O)NC6=O)C7=O)CC5)C4)cc3)cc21 (centres unmarked) [Compound 4]
Dmax (androgen receptor; LNCaP): 91% | DC50 (androgen receptor; 24 hours treatment): 108 nM

CC1(C)C(=O)N(c2ccc(C#N)c(Cl)c2)c2ccc(-c3ccc(N4CC(F)(CN5CCN(c6ccc7c(c6)C(=O)N(C6CCC(=O)NC6=O)C7=O)CC5)C4)cc3)cc21 (centres unmarked) [Compound 5]
IC50 (LNcap FGC cells; [2]): 95.7 nM | Emax (LNcap FGC cells; [3]): 93%

CC1(C)C(=O)N(c2ccc(C#N)c(Cl)c2)c2ccc(-c3ncc(N4CC(CN5CCN(c6ccc7c(c6)C(=O)N(C6CCC(=O)NC6=O)C7=O)CC5)C4)cn3)cc21 (centres unmarked) [Compound 6]
Emax (LNcap FGC cells; LNCaP): 99% | IC50 (LNcap FGC cells; LNCaP): 76.7 nM | Emax (VCap cells; VCaP): 94% | IC50 (VCap cells; VCaP): 81 nM | F ([1]; oral administration 10 mg/kg vs intravenous 1 mg/kg): 71.3% | AUC(0-inf) [1, 4]: 9860 ng·h/mL | clearance [1, 4]: 1.69 mL/min/kg | half-life [1, 4]: 672 min | AUC(0-inf) [1, 5]: 70300 ng·h/mL | Cmax [1, 5]: 2920 ng/mL | half-life [1, 5]: 672 min

CC1(C)C(=O)N(c2ccc(C#N)c(Cl)c2)c2ccc(-c3ccc(N4CC(CN5CCN(c6cc7c(cc6F)C(=O)N(C6CCC(=O)NC6=O)C7=O)CC5)C4)cc3)cc21 (centres unmarked) [Compound 7]
Dmax (androgen receptor; LNCaP): 75% | DC50 (androgen receptor; 24 hours treatment): 72.1 nM

CC1(C)C(=O)N(c2ccc(C#N)c(Cl)c2)c2ccc(-c3cnc(N4CC(CN5CCN(c6ccc7c(c6)C(=O)N(C6CCC(=O)NC6=O)C7=O)CC5)C4)cn3)cc21 (centres unmarked) [Compound 10]
IC50 (LNcap FGC cells; [2]): 39.4 nM | Emax (LNcap FGC cells; [3]): 100% | IC50 (VCap cells; VCaP cell proliferation, 6 days, 5% FBS and 0.1 nM R1881, read-out: IC50): 50 nM | Emax (VCap cells; maximum degree of inhibition of VCaP cell proliferation, 6 days, 5% FBS and 0.1 nM R1881, read-out: Emax): 98%

CC1(C)C(=O)N(c2cnc(C#N)c(Cl)c2)c2ccc(-c3ccc(N4CC(CN5CCN(c6ccc7c(c6)C(=O)N(C6CCC(=O)NC6=O)C7=O)CC5)C4)cc3)cc21 (centres unmarked) [Compound 11]
DC50 (androgen receptor; 24 hours treatment, read-out: DC50): 74.7 nM | Dmax (androgen receptor; maximum degradation of AR in LnCaP cells, 24 hours treatment, read-out: Dmax): 74%

CC1(C)C(=O)N(c2ccc(C#N)c(Cl)c2)c2ccc(-c3ccc(-c4cnn(CCN5CCN(c6ccc7c(c6)C(=O)N(C6CCC(=O)NC6=O)C7=O)CC5)c4)cc3)cc21 (centres unmarked) [Compound 12]
Emax (LNcap FGC cells; LNCaP): 68% | IC50 (LNcap FGC cells; LNCaP): 82 nM | Dmax (androgen receptor; LNCaP): 75% | DC50 (androgen receptor; 24 hours treatment): 78.8 nM

CC1(C)C(=O)N(c2ccc(C#N)c(Cl)c2)c2ccc(-c3ccc(-c4cnn(CCCN5CCN(c6ccc7c(c6)C(=O)N(C6CCC(=O)NC6=O)C7=O)CC5)c4)cc3)cc21 (centres unmarked) [Compound 13]
Dmax (androgen receptor; LNCaP): 100% | DC50 (androgen receptor; 24 hours treatment): 73.4 nM

CC1(C)C(=O)N(c2ccc(C#N)c(C(F)(F)F)c2)c2ccc(-c3ccc(N4CC(CN5CCN(c6ccc7c(c6)C(=O)N(C6CCC(=O)NC6=O)C7=O)CC5)C4)nc3F)cc21 (centres unmarked) [Compound 15]
Dmax (androgen receptor; LNCaP): 67% | DC50 (androgen receptor; 24 hours treatment): 3.49 nM | Emax (VCap cells; VCaP): 92% | IC50 (VCap cells; VCaP): 82 nM
